Reference: US9255110B2 (Hoffmann-La Roche Inc., priority 2010, dated 2016)
Where a name gives a salt, the structure may show the parent alone.

Each molecule was assayed against IRAK-4 (Homo sapiens (Human), UniProt Q9NWZ3) (assay: In vitro IRAK-4 kinase assay). Conditions: purified recombinant IRAK-4, 50 uM ATP, 33P peptide phosphorylation.
Type: biochemical
Method in brief: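 Recombinant IRAK-4 or IRAK-1 incubated with 250 uM synthetic peptide in MOPS pH7.2 kinase buffer with 50 uM ATP, 20 mM MgCl2 and γ-33P ATP for the indicated time. Phosphorylated peptide captured on phosphocellulose, washed with phosphoric acid, quantified by scintillation counting.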

Sequence of IRAK-4 (Q9NWZ3 whole entry, species assumed): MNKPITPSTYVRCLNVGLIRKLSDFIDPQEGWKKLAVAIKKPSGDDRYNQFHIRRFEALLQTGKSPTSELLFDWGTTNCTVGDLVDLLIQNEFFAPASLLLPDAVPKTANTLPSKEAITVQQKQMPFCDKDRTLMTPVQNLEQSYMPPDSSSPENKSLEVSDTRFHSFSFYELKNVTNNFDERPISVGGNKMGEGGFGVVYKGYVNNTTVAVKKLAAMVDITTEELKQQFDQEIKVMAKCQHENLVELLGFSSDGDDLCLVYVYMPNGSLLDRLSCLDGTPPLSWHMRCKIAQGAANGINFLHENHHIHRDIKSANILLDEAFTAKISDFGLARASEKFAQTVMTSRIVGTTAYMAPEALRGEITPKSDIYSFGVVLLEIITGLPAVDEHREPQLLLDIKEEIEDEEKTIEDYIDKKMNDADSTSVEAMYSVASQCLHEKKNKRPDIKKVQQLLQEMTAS

| Structure (SMILES) | IC50 [µM] |
| --- | --- |
| O=C(Nc1cc(Cl)ccc1OC1CCC(O)CC1)c1cnn2cc(CO)cnc12 (stereo not drawn) [Example 133, 6-Hydroxymethyl-pyrazolo[1,5-alpha]pyrimidine-3-carboxylic acid [5-chloro-2-(4-hydroxy-cyclohexyloxy)-phenyl]-amide] | 2.25 |
| COc1cc(C(N)=O)ccc1NC(=O)c1cnn2cccnc12 [Example 134, Pyrazolo[1,5-alpha]pyrimidine-3-carboxylic acid (4-carbamoyl-2-methoxy-phenyl)-amide] | 2.26 |
| CC(C)COc1ccc(Cl)cc1NC(=O)c1cnn2cccnc12 [Example 135, Pyrazolo[1,5-alpha]pyrimidine-3-carboxylic acid (5-chloro-2-isobutoxy-phenyl)-amide] | 2.28 |
| O=C(Nc1nc2ccccc2n1CCCO)c1csc2cncnc12 [Example 136, Thieno[3,2-d]pyrimidine-7-carboxylic acid [1-(3-hydroxy-propyl)-1H-benzoimidazol-2-yl]-amide] | 2.31 |
| O=C(Nc1cc(Cl)ccc1OCCCO)c1csc2cncnc12 [Example 139, Thieno[3,2-d]pyrimidine-7-carboxylic acid [5-chloro-2-(3-hydroxy-propoxy)-phenyl]-amide] | 2.45 |
| O=C(Nc1cccc(NCCCO)c1N1CCCCC1)c1cnn2cccnc12 [Example 144, Pyrazolo[1,5-alpha]pyrimidine-3-carboxylic acid [3-(3-hydroxy-propylamino)-2-piperidin-1-yl-phenyl]-amide] | 2.85 |
| COc1cc(C(=O)NCCO)ccc1NC(=O)c1cnn2cccnc12 [Example 146, Pyrazolo[1,5-alpha]pyrimidine-3-carboxylic acid [4-(2-hydroxy-ethylcarbamoyl)-2-methoxy-phenyl]-amide] | 2.96 |
| O=C(Nc1cc(Cl)ccc1OC1CCC(O)CC1)c1cnn2cc(CCO)cnc12 (stereo not drawn) [Example 147, 6-(2-Hydroxy-ethyl)-pyrazolo[1,5-alpha]pyrimidine-3-carboxylic acid [5-chloro-2-(4-hydroxy-cyclohexyloxy)-phenyl]-amide] | 3.04 |
| CC(N)C1CCN(c2ccc(Cl)cc2NC(=O)c2cnn3cccnc23)C1 (stereo not drawn) [Example 148, Pyrazolo[1,5-alpha]pyrimidine-3-carboxylic acid {2-[3-(1-amino-ethyl)-pyrrolidin-1-yl]-5-chloro-phenyl}-amide hydrochloride] | 3.08 |
| COc1ccc(Cl)cc1NC(=O)c1csc2cccnc12 [Example 150, Thieno[3,2-beta]pyridine-3-carboxylic acid (5-chloro-2-methoxy-phenyl)-amide] | 3.46 |
| CNCC1CCN(c2ccc(Cl)cc2NC(=O)c2csc3cncnc23)CC1 [Example 151, Thieno[3,2-d]pyrimidine-7-carboxylic acid [5-chloro-2-(4-methylaminomethyl-piperidin-1-yl)-phenyl]-amide] | 3.54 |
| COc1ccc(Cl)cc1NC(=O)c1csc2cnc(N(C)CCO)nc12 [Example 157, 2-[(2-Hydroxy-ethyl)-methyl-amino]-thieno[3,2-d]pyrimidine-7-carboxylic acid (5-chloro-2-methoxy-phenyl)-amide] | 4.13 |
| COc1ccc(Cl)cc1NC(=O)c1csc2ccc(NCCO)nc12 [Example 162, 5-(2-Hydroxy-ethylamino)-thieno[3,2-beta]pyridine-3-carboxylic acid (5-chloro-2-methoxy-phenyl)-amide] | 4.66 |
| O=C(Nc1cc(Cl)ccc1N1CCCCC1CO)c1cnn2cccnc12 (stereo not drawn) [Example 164, Pyrazolo[1,5-alpha]pyrimidine-3-carboxylic acid [5-chloro-2-(2-hydroxymethyl-piperidin-1-yl)-phenyl]-amide] | 4.85 |
| COc1c(C)cc(C)cc1NC(=O)c1cnn2cccnc12 [Example 168, Pyrazolo[1,5-alpha]pyrimidine-3-carboxylic acid (2-methoxy-3,5-dimethyl-phenyl)-amide] | 6.52 |
| COc1ccccc1NC(=O)c1csc2cncnc12 [Example 169, Thieno[3,2-d]pyrimidine-7-carboxylic acid (2-methoxy-phenyl)-amide] | 6.56 |
| Cc1ccn2ncc(C(=O)Nc3cc(Cl)ccc3OC3CCC(O)CC3)c2n1 (stereo not drawn) [Example 170, 5-Methyl-pyrazolo[1,5-alpha]pyrimidine-3-carboxylic acid [5-chloro-2-(4-hydroxy-cyclohexyloxy)-phenyl]-amide] | 6.56 |
| COc1cc(C(=O)N(C)C)ccc1NC(=O)c1cnn2cccnc12 [Example 172, Pyrazolo[1,5-alpha]pyrimidine-3-carboxylic acid (4-dimethylcarbamoyl-2-methoxy-phenyl)-amide] | 7.65 |
| COc1ccc(Cl)cc1NC(=O)c1csc2cnc(NCCNC(C)=O)nc12 [Example 175, 2-(2-Acetylamino-ethylamino)-thieno[3,2-d]pyrimidine-7-carboxylic acid-(5-chloro-2-methoxy-phenyl)-amide] | 8.09 |

Second part, the molecule after the results:

| IC50 [µM] | Structure (SMILES) |
| --- | --- |
| 2.31 | O=C(Nc1cc(Cl)ccc1OC[C@@H](O)CO)c1cnn2cccnc12 [Example 137, Pyrazolo[1,5-alpha]pyrimidine-3-carboxylic acid [5-chloro-2-(2,3-dihydroxy-propoxy)-phenyl]-amide] |
| 2.42 | COCCCOc1ccc(Cl)cc1NC(=O)c1cnn2cccnc12 [Example 138, Pyrazolo[1,5-alpha]pyrimidine-3-carboxylic acid [5-chloro-2-(3-methoxy-propoxy)-phenyl]-amide] |
| 2.63 | O=C(Nc1cc(Cl)ccc1OCc1cccc(O)c1)c1cnn2cccnc12 [Example 141, Pyrazolo[1,5-alpha]pyrimidine-3-carboxylic acid [5-chloro-2-(3-hydroxy-benzyloxy)-phenyl]-amide] |
| 2.74 | COc1cc(OC)c(NC(=O)c2cnn3cccnc23)cc1Cl [Example 142, Pyrazolo[1,5-alpha]pyrimidine-3-carboxylic acid (5-chloro-2,4-dimethoxy-phenyl)-amide] |
| 2.75 | C=Cc1ccc(OC)c(NC(=O)c2cnn3cccnc23)c1 [Example 143, Pyrazolo[1,5-alpha]pyrimidine-3-carboxylic acid (2-methoxy-5-vinyl-phenyl)-amide] |
| 2.95 | O=C(Nc1cc(Cl)ccc1CCCCO)c1cnn2cccnc12 [Example 145, Pyrazolo[1,5-alpha]pyrimidine-3-carboxylic acid [5-chloro-2-(4-hydroxy-butyl)-phenyl]-amide] |
| 3.4 | CN(CCCO)c1ccc(Cl)cc1NC(=O)c1cnn2cccnc12 [Example 149, Pyrazolo[1,5-alpha]pyrimidine-3-carboxylic acid {5-chloro-2-[(3-hydroxy-propyl)-methyl-amino]-phenyl}-amide] |
| 3.7 | COc1ccc(/C=C/CO)cc1NC(=O)c1cnn2cccnc12 [Example 152, Pyrazolo[1,5-alpha]pyrimidine-3-carboxylic acid [5-(3-hydroxy-propenyl)-2-methoxy-phenyl]-amide] |
| 3.77 | COc1ccc(C)cc1NC(=O)c1cnn2cccnc12 [Example 153, Pyrazolo[1,5-alpha]pyrimidine-3-carboxylic acid (2-methoxy-5-methyl-phenyl)-amide] |
| 3.8 | CCc1ccc(Cl)cc1NC(=O)c1cnn2cccnc12 [Example 154, Pyrazolo[1,5-alpha]pyrimidine-3-carboxylic acid (5-chloro-2-ethyl-phenyl)-amide] |
| 4.05 | O=C(Nc1cc(Cl)ccc1Oc1cccc(O)c1)c1cnn2cccnc12 [Example 156, Pyrazolo[1,5-alpha]pyrimidine-3-carboxylic acid [5-chloro-2-(3-hydroxy-phenoxy)-phenyl]-amide] |
| 4.17 | COc1ccc(NC(=O)c2cnn3cccnc23)c(OC)c1 [Example 158, Pyrazolo[1,5-alpha]pyrimidine-3-carboxylic acid (2,4-dimethoxy-phenyl)-amide] |
| 4.3 | COC(=O)COc1ccc(Cl)cc1NC(=O)c1cnn2cccnc12 [Example 160, {4-Chloro-2-[(pyrazolo[1,5-alpha]pyrimidine-3-carbonyl)-amino]-phenoxy}-acetic acid methyl ester] |
| 4.65 | O=C(Nc1cc(Cl)ccc1Oc1ccccc1)c1cnn2cccnc12 [Example 161, Pyrazolo[1,5-alpha]pyrimidine-3-carboxylic acid (5-chloro-2-phenoxy-phenyl)-amide] |
| 4.66 | O=C(Nc1cc(Cl)ccc1OC[C@H](O)CO)c1cnn2cccnc12 [Example 163, Pyrazolo[1,5-alpha]pyrimidine-3-carboxylic acid [5-chloro-2-(2,3-dihydroxy-propoxy)-phenyl]-amide] |
| 5.21 | COc1cc(-c2ccccc2)ccc1NC(=O)c1cnn2cccnc12 [Example 165, Pyrazolo[1,5-alpha]pyrimidine-3-carboxylic acid (3-methoxy-biphenyl-4-yl)-amide] |
| 5.88 | CCc1ccc(OC)c(NC(=O)c2cnn3cccnc23)c1 [Example 166, Pyrazolo[1,5-alpha]pyrimidine-3-carboxylic acid (5-ethyl-2-methoxy-phenyl)-amide] |
| 5.94 | COc1cc(-c2ccccc2)c(C)cc1NC(=O)c1cnn2cccnc12 [Example 167, Pyrazolo[1,5-alpha]pyrimidine-3-carboxylic acid (5-methoxy-2-methyl-biphenyl-4-yl)-amide] |
| 7.34 | COc1ccccc1NC(=O)c1cnn2cccnc12 [Example 171, Pyrazolo[1,5-alpha]pyrimidine-3-carboxylic acid (2-methoxy-phenyl)-amide] |
| 7.7 | COc1ccc(NC(C)=O)cc1NC(=O)c1cnn2cccnc12 [Example 173, Pyrazolo[1,5-alpha]pyrimidine-3-carboxylic acid (5-acetylamino-2-methoxy-phenyl)-amide] |
| 7.92 | COc1cc(C(=O)Nc2ccccc2)c(Cl)cc1NC(=O)c1cnn2cccnc12 [Example 174, Pyrazolo[1,5-alpha]pyrimidine-3-carboxylic acid (5-chloro-2-methoxy-4-phenylcarbamoyl-phenyl)-amide] |
